From US8518372B2, “Coronin 1 modulators for the treatment of autoimmune and Lymphoproliferative disorders and mycobacterial infections” (priority 2006, dated 2013) come the findings set out here.

Each structure is given as a SMILES string. Where two headings read alike, the source gives them in different places.

One data set concerns Mycobacterium bovis BCG. It counts as cell-based.
Data set [1] has as its system M. bovis BCG in bone marrow derived macrophages. The data set is classed as cell-based, mice. The settings on record: for lysosomal delivery of mycobacteria: infection 1 h, chase 3 h.
In another data set the test system is mycobacteria. Description: Bacterial proliferation in presence or absence of calcineurin inhibitors. It counts as cell-based. The settings on record: FIG. 10h.
For data set [2], the system named is macrophages. Description: Macrophage viability.
Data set [3] deals with macrophages. Nature of the data set: Protein synthesis in macrophages. The data set is classed as cell-based, mice.
The subject of data set [4] is bone marrow derived macrophages. Nature of the data set: Calcium fluorimetry (Fluo3) in macrophages. The settings on record: Fluo-3, FIG. 10a. It counts as cell-based, mice.

As for `CC(=O)OCOC(=O)CN(CC(=O)OCOC(C)=O)c1ccccc1OCCOc1ccccc1N(CC(=O)OCOC(C)=O)CC(=O)OCOC(C)=O` [BAPTA-AM], the “survival of mycobacteria within macrophages” value in the data set on Mycobacterium bovis BCG (BAPTA-AM present, FIG. 10e) was “killed”. Moreover, the “lysosomal delivery of mycobacteria” value in data set [1] (BAPTA-AM 1 μM, FIG. 10c,d) is given as “virtually all mycobacteria were transported to lysosomes”.
With `C=CC[C@@H]1/C=C(\C)C[C@H](C)C[C@H](OC)[C@H]2O[C@@](O)(C(=O)C(=O)N3CCCC[C@H]3C(=O)O[C@H](/C(C)=C/[C@@H]3CC[C@@H](O)[C@H](OC)C3)[C@H](C)[C@@H](O)CC1=O)[C@H](C)C[C@@H]2OC` [FK506, tacrolimus], in the data set on mycobacteria, the bacterial proliferation result is recorded as “identical in the presence or absence”. For the same compound, the “survival of mycobacteria within macrophages” value in the data set on Mycobacterium bovis BCG (wild type bone marrow derived macrophages, calcineurin inhibitor present, FIG. 10h) was “unable to survive within macrophages”. The “lysosomal delivery of mycobacteria” value in data set [1] (FK506 0.5 μM, FIG. 10g) is “complete relocation of mycobacteria to lysosomes”.
Turning to `C[C@@H]1C[C@@H]([C@H](O)CC2CC(=O)NC(=O)C2)C(=O)[C@@H](C)C1` [cycloheximide], the survival of mycobacteria result in the data set with Mycobacterium bovis BCG is “did not result in alteration”. In addition, in data set [1], the “intracellular routing of mycobacteria” value is given as “did not result in alteration”. Besides, the macrophage viability entry in the data set on macrophages [2] is reported as “without compromising macrophage viability”. Further, in the data set with macrophages [3], the protein synthesis result is given as “efficiently blocked protein synthesis”.
Turning to `C[C@H](CCC(=O)O)C[C@H](C)C[C@H](C)C(=O)/C=C(\O)[C@H](C)C[C@H](C)C/C=C/[C@@H](C)[C@@H](O)[C@@H](C)[C@@H](O)C[C@@H]1CC[C@@](C)([C@H]2CC[C@@](C)([C@@H](C)O)O2)O1` [ionomycin], the figures for the “cytosolic Ca2+ flux upon stimulation” value in data set [4] (coronin 1 deficient macrophages) and in data set [4] (macrophages from wild type mice) were “no Ca^2+ flux was observed” and “accompanied with a flux of cytosolic Ca^2+”, respectively.
